Legend:
[1] = Blood Brain Barrier penetration (plasma and brain concentration); format: in vivo
[2] = Stability study of drug substance in sealed pouches; format: physicochemical; settings: ambient temperature and 40° C.-45° C. (no humidity control), 3-month period, polyethylene pouches in aluminum pouch
Protocol: A stability study has been completed on Compound P3.1. Samples of Compound P3.1 were aliquoted into double-walled polyethylene pouches, which were tied off and then heat-sealed in an aluminum pouch. Samples were stored at ambient temperature and at 40° C.-45° C. (no humidity control) with testing performed over a 3-month period.

Row | Structure (SMILES) | Kp at 0.5 h ([1]; brain/plasma, 30 min, read-out: Brain/Plasma ratio after 30 minutes) | Kp at 2 h ([1]; brain/plasma, 120 min, read-out: Brain/Plasma ratio after 120 minutes) | Changes to appearance or purity of the material [2] | Brain concentration after 120 minutes ([1]; brain, 120 min)
1 | C[C@@H]1CN(Cc2ncccn2)C[C@H]1c1cn2c(C3CCOCC3)ncc2c(=O)[nH]1 [Compound P3.1, 6-[(3S,4S)-4-methyl-1-(pyrimidin-2-ylmethyl)pyrrolidin-3-yl]-3-tetrahydropyran-4-yl-7H-imidazo[1,5-a]pyrazin-8-one] | 0.04 | 0.03 | no changes to appearance or purity | 
2 | O=c1[nH]c(CN2CC(Oc3cccnc3)C2)cn2c(C3CCOCC3)ncc12 [Compound (P2)] |  |  |  | detection limit

Source: patent US11370795B2, “Process for the synthesis of 6-[(3S,4S)-4-methyl-1-(pyrimidin-2-ylmethyl)pyrrolidin-3-yl]-3-tetrahydropyran-4-yl-7H-imidazo[1,5-a]pyrazin-8-one” (Imara Inc., priority 2017, dated 2022)
